Experimental data reported in paper PMC6327044, “A chemical biology screen identifies a vulnerability of neuroendocrine cancer cells to SQLE inhibition” (Nature Communications, 2019).

Assays:
Test in all cases: cells
Parameters in all cases: species or system panel of 482 human cancer cell lines; ATPLite luminescence growth inhibition after treatment, nine-point dilution curve, 482 cancer cell lines, 384-well
Details in all cases: 72 h, recommended growth medium
[1] = test system: CAL27_UPPER_AERODIGESTIVE_TRACT
Procedure: (§1) Cells were seeded in recommended growth media in black 384-well tissue culture treated plates at 500 cells per well. Cells were equilibrated in assay plates via centrifugation and placed in incubators for 24 h before treatment. […] Treated assay plates were incubated with compounds for 72 h and subsequently were developed for endpoint analysis using ATPLite. Each compound was assessed using a nine-point dilution curve. Cells were defined as sensitive to a given compound based on GI75 < 2 μM with manual quality control of curve fit. GI75 is defined as a drug concentration that causes a 75% reduction in assay readout relative to dimethyl sulfoxide (DMSO)-treated controls. To identify novel cancer vulnerabilities, we screened a panel of 482 cell lines with a diverse set of metabolic inhibitors. […] Given that SCLC is thought to arise from neuroendocrine cells in the lung[9], we tested the NB-598 sensitivity in a panel of 42 SCLC cell lines. We calculated a quantitative metric of sensitivity for each cell line based on the area under the curve (AUC) of the mu/mu.max curve to more accurately capture the potency and extent of NB-598 effects. […] We categorized the SCLC cell lines as sensitive (5/42), moderate (11/42), and insensitive (26/42) (Fig. 1c and Supplementary Data 2) and focused all subsequent efforts on this indication. […] To further understand the patterns of sensitivity, we conducted RNA sequencing (RNA-Seq; Supplementary Data 3) and proteomic (Supplementary Data 4) characterization of the SCLC panel to identify unbiased expression signatures associated with enhanced NB-598 response (Supplementary Fig. 1 and Supplementary Fig. 2). Given the growing understanding that SCLC tumors can be further subdivided based on the status of lineage-defining transcription factors, ASLC1 and NEUROD1, we specifically investigated NB-598 response as the function of ASCL1 and NEUROD1 expression levels. […] To further dissect the NB-598 response within the ASCL1-high/NEUROD-low subset of 25 cell lines, we identified RNA-Seq and proteomics expression signatures associated with NB

[2] = test system: DU4475_BREAST
Procedure: as §1

[3] = test system: HCC1588_LUNG
Procedure: as §1

[4] = test system: HEC1A_ENDOMETRIUM
Procedure: as §1

[5] = test system: JVM13_HAEMATOPOIETIC_AND_LYMPHOID_TISSUE
Procedure: as §1

[6] = test system: LK2_LUNG
Procedure: as §1

[7] = test system: LU139_LUNG
Procedure: as §1

[8] = test system: LU24_LUNG
Procedure: as §1

[9] = test system: MORCPR_LUNG
Procedure: as §1

[10] = test system: NCIH1155_LUNG
Procedure: as §1

[11] = test system: NCIH841_LUNG
Procedure: as §1

[12] = test system: SKNDZ_AUTONOMIC_GANGLIA
Procedure: as §1

[13] = test system: SNU1066_UPPER_AERODIGESTIVE_TRACT
Procedure: as §1

[14] = test system: SNU503_LARGE_INTESTINE
Procedure: as §1

[15] = test system: SNU61_LARGE_INTESTINE
Procedure: as §1

[16] = test system: TMD8_HAEMATOPOIETIC_AND_LYMPHOID_TISSUE
Procedure: as §1

[17] = test system: TT_OESOPHAGUS
Procedure: as §1

- GI50 [3]: 5160 nM
- GI50 [12]: 12 nM
- GI50 [13]: 121000 nM
- GI50 [14]: 598 nM
- GI50 [15]: 280 nM
Compound: CCN(C/C=C/C#CC(C)(C)C)Cc1cccc(OCc2cc(-c3ccsc3)cs2)c1 [NB-598]
- GI50 [1]: 12400 nM
- GI50 [2]: 61.7 nM
- GI50 [4]: 12600 nM
- GI50 [5]: 9610 nM
- GI50 [6]: 22.4 nM
- GI50 [7]: 32.1 nM
- GI50 [8]: 6570 nM
- GI50 [9]: 2690 nM
- GI50 [10]: 5.17 nM
- GI50 [11]: 13200 nM
- GI50 [16]: 131 nM
- GI50 [17]: 296 nM
